Results: US9815819B2, “Complement pathway modulators and uses thereof” (priority 2012, dated 2017)
Read-outs that look alike come from different tables or passages of the source.

Target: Recombinant human factor D (Homo sapiens (Human), UniProt P00746)
Assay: Human Complement Factor D Assay: Method 1
Format: biochemical
Conditions: Factor D inhibition, Method 1: 10 nM factor D, 1 hour incubation with compound at room temperature, substrate Z-Lys-thiobenzyl, fluorescence readout
Procedure: Recombinant human factor D (expressed in E. coli and purified using standard methods) at 10 nM concentration is incubated with test compound at various concentrations for 1 hour at room temperature in 0.1 M Hepes buffer, pH 7.5, containing 1 mM MgCl2, 1 M NaCl and 0.05% CHAPS. […] IC50 values are calculated from percentage of inhibition of complement factor D-activity as a function of test compound concentration.

Sequence of Recombinant human factor D (P00746 26-253): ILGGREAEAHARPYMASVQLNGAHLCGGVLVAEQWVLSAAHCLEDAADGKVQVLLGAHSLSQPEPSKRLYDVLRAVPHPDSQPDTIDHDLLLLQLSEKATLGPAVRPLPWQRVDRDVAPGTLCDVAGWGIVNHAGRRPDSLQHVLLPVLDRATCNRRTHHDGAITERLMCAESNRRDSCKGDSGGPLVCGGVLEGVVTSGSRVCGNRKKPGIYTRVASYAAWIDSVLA

Row | Structure (SMILES) | IC50 (read-out: IC50) [µM] | IC50 (IC50 (μM)) [µM]
1 | NC(=O)c1nn(CC(=O)N2C[C@H](F)C[C@H]2C(=O)N[C@@H]2C[C@H]2c2ccccc2)c2ccccc12 [Example 18, 1-{2-[(2S,4R)-4-Fluoro-2-((1R,2S)-2-phenyl-cyclopropylcarbamoyl)-pyrrolidin-1-yl]-2-oxo-ethyl}-1H-indazole-3-carboxylic acid amide] | 0.044 | –
2 | NC(=O)c1nn(CC(=O)N2[C@@H]3C[C@@H]3C[C@H]2C(=O)NC2CCCC(c3ccccc3)C2)c2ccccc12 (single isomer, unassigned) [Example 80] | – | 0.475
3 | NC(=O)c1nn(CC(=O)N2[C@@H]3C[C@@H]3C[C@H]2C(=O)NC2CC2(F)c2ccccc2F)c2ccccc12 (single isomer, unassigned) [Example 52] | 0.367 | –
4 | NC(=O)c1nn(CC(=O)N2[C@@H]3C[C@@H]3C[C@H]2C(=O)NC2CC2c2ccc(F)cc2F)c2ccccc12 (single isomer, unassigned) [Example 74] | 3.76 | –
5 | NC(=O)c1nn(CC(=O)N2[C@H](C(=O)N[C@@H]3C[C@H]3c3ccccc3Cl)C[C@@]3(CO)C[C@@H]23)c2ccccc12 [Example 30, 1-(2-{(1R,3S,5S)-3-[(1R,2S)-2-(2-Chloro-phenyl)-cyclopropylcarbamoyl]-5-hydroxymethyl-2-aza-bicyclo[3.1.0]hex-2-yl}-2-oxo-ethyl)-1H-indazole-3-carboxylic acid amide] | 0.022 | –
6 | NC(=O)c1nn(CC(=O)N2[C@@H]3C[C@@H]3C[C@H]2C(=O)N[C@@H]2C[C@@]2(F)c2ccccc2)c2cc(F)c(F)cc12 [Example 25, 5,6-Difluoro-1-{2-[(1R,3S,5R)-3-((1R,2R)-2-fluoro-2-phenyl-cyclopropylcarbamoyl)-2-aza-bicyclo[3.1.0]hex-2-yl]-2-oxo-ethyl}-1H-indazole-3-carboxylic acid amide] | 0.11 | –
7 | NC(=O)c1nn(CC(=O)N2[C@@H]3C[C@@H]3C[C@H]2C(=O)NC2CC2(F)c2ccccc2F)c2ccccc12 (single isomer, unassigned) [Example 53] | 0.036 | –
8 | NC(=O)c1nn(CC(=O)N2[C@@H]3C[C@@H]3C[C@H]2C(=O)NC2CCCC(c3ccccc3)C2)c2ccccc12 (single isomer, unassigned) [Example 79] | – | 0.114
9 | NC(=O)c1nn(CC(=O)N2[C@@H]3C[C@@H]3C[C@H]2C(=O)NC2CC2(F)c2ccccc2F)c2ccccc12 (single isomer, unassigned) [Example 50] | 3.88 | –
10 | NC(=O)c1nn(CC(=O)N2[C@@H]3C[C@@H]3C[C@H]2C(=O)NC2CC2(F)c2ccccc2F)c2ccccc12 (single isomer, unassigned) [Example 51] | 0.992 | –
11 | NC(=O)c1nn(CC(=O)N2[C@@H]3C[C@@H]3C[C@H]2C(=O)N[C@@H]2C[C@@]2(F)c2ccccc2)c2ccccc12 [Example 39, 1-{2-[(1R,3S,5R)-3-((1R,2R)-2-fluoro-2-phenyl-cyclopropylcarbamoyl)-2-aza-bicyclo[3.1.0]hex-2-yl]-2-oxo-ethyl}-1H-indazole-3-carboxylic acid amide] | 0.048 | –
12 | NC(=O)c1nn(CC(=O)N2[C@@H]3C[C@@H]3C[C@H]2C(=O)NC2CCCC(c3ccccc3)C2)c2ccccc12 (single isomer, unassigned) [Example 81] | – | 5.65

Now from value to molecule, other results behind:

Row | IC50 (read-out: IC50) [µM] | Structure (SMILES) | IC50 (IC50 (μM)) [µM]
13 | 3.65 | NC(=O)c1nn(CC(=O)N2[C@@H]3C[C@@H]3C[C@H]2C(=O)N[C@H]2C[C@]2(F)c2ccccc2)c2cnccc12 [Example 42, 1-{2-[(1R,3S,5R)-3-((1S,2S)-2-Fluoro-2-phenyl-cyclopropylcarbamoyl)-2-aza-bicyclo[3.1.0]hex-2-yl]-2-oxo-ethyl}-1H-pyrazolo[3,4-c]pyridine-3-carboxylic acid amide] | –
14 | 0.702 | CC(=O)c1nn(CC(=O)N2[C@@H]3C[C@@H]3C[C@H]2C(=O)N[C@H]2C[C@@H]2c2ccccc2)c2cnccc12 [Example 4, (1R,3S,5R)-2-[2-(3-Acetyl-pyrazolo[3,4-c]pyridin-1-yl)-acetyl]-2-aza-bicyclo[3.1.0] hexane-3-carboxylic acid ((1S,2R)-2-phenyl-cyclopropyl)-amide] | –
15 | 0.032 | CC(=O)c1nn(CC(=O)N2[C@@H]3C[C@@H]3C[C@H]2C(=O)N[C@@H]2C[C@@]2(F)c2ccccc2)c2cnccc12 [Example 46, (1R,3S,5R)-2-[2-(3-Acetyl-pyrazolo[3,4-c]pyridin-1-yl)-acetyl]-2-aza-bicyclo[3.1.0] hexane-3-carboxylic acid ((1R,2R)-2-fluoro-2-phenyl-cyclopropyl)-amide] | –
16 | 0.115 | Cc1cc2c(C(N)=O)nn(CC(=O)N3[C@@H]4C[C@@H]4C[C@H]3C(=O)N[C@@H]3C[C@H]3c3ccccc3)c2cn1 [Example 15, 5-Methyl-1-{2-oxo-2-[(1R,3S,5R)-3-((1R,2S)-2-phenyl-cyclopropylcarbamoyl)-2-aza-bicyclo[3.1.0]hex-2-yl]-ethyl}-1H-pyrazolo[3,4-]pyridine-3-carboxylic acid amide] | –
17 | 0.172 | CC(=O)c1nn(CC(=O)N2[C@H](C(=O)N[C@@H]3C[C@H]3c3ccccc3)C[C@@]3(CO)C[C@@H]23)c2ncccc12 [Example 28, (1R,3S,5S)-2-[2-(3-Acetyl-pyrazolo[3,4-b]pyridin-1-yl)-acetyl]-5-hydroxymethyl-2-aza-bicyclo[3.1.0]hexane-3-carboxylic acid((1R,2S)-2-phenyl-cyclopropyl)-amide] | –
18 | 0.147 | CC(=O)c1nn(CC(=O)N2[C@@H]3C[C@@H]3C[C@H]2C(=O)N[C@@H]2C[C@H]2c2ccccc2)c2ccncc12 [Example 3, (1R,3S,5R)-2-[2-(3-Acetyl-pyrazolo[4,3-c]pyridin-1-yl)-acetyl]-2-aza-bicyclo[3.1.0] hexane-3-carboxylic acid ((1R,2S)-2-phenyl-cyclopropyl)-amide] | –
19 | 0.106 | CC(=O)c1nn(CC(=O)N2[C@@H]3C[C@@H]3C[C@H]2C(=O)N[C@@H]2C[C@H]2c2ccccc2)c2cnccc12 [Example 5, (1R,3S,5R)-2-[2-(3-Acetyl-pyrazolo[3,4-c]pyridin-1-yl)-acetyl]-2-aza-bicyclo[3.1.0] hexane-3-carboxylic acid ((1R,2S)-2-phenyl-cyclopropyl)-amide] | –
20 | 0.214 | NC(=O)c1nn(CC(=O)N2[C@@H]3C[C@@H]3C[C@H]2C(=O)N[C@@H]2C[C@@]2(F)c2ccccc2)c2cnccc12 [Example 43, 1-{2-[(1R,3S,5R)-3-((1R,2R)-2-Fluoro-2-phenyl-cyclopropylcarbamoyl)-2-aza-bicyclo[3.1.0]hex-2-yl]-2-oxo-ethyl}-1H-pyrazolo[3,4-c]pyridine-3-carboxylic acid amide] | –
21 | 0.225 | CC(=O)c1nn(CC(=O)N2[C@@H]3C[C@@H]3C[C@H]2C(=O)N[C@@H]2C[C@H]2c2cccc(Cl)c2)c2ncccc12 [Example 54, (1R,3S,5R)-2-[2-(3-Acetyl-pyrazolo[3,4-b]pyridin-1-yl)-acetyl]-2-aza-bicyclo[3.1.0]hexane-3-carboxylic acid[(1R,2S)-2-(3-chloro-phenyl)-cyclopropyl]-amide] | –
22 | 0.044 | CC(=O)c1nn(CC(=O)N2[C@@H]3C[C@@H]3C[C@H]2C(=O)N[C@@H]2C[C@H]2c2ccccc2Cl)c2ncccc12 [Example 66, (1R,3S,5R)-2-[2-(3-Acetyl-pyrazolo[3,4-b]pyridin-1-yl)-acetyl]-2-aza-bicyclo[3.1.0] hexane-3-carboxylic acid [(1R,2S)-2-(2-chloro-phenyl)-cyclopropyl]-amide] | –
23 | 1.61 | CC(=O)c1nn(CC(=O)N2[C@@H]3C[C@@H]3C[C@H]2C(=O)N[C@H]2C[C@@H]2c2cccc(Cl)c2F)c2ncccc12 [Example 57, (1R,3S,5R)-2-[2-(3-Acetyl-pyrazolo[3,4-b]pyridin-1-yl)-acetyl]-2-aza-bicyclo[3.1.0]hexane-3-carboxylic acid [(1S,2R)-2-(3-chloro-2-fluoro-phenyl)-cyclopropyl]-amide] | –
24 | 1.4 | NC(=O)c1nn(CC(=O)N2[C@@H]3C[C@@H]3C[C@H]2C(=O)N[C@H]2C[C@@H]2c2ccccc2Cl)c2cnccc12 [Example 21, 1-(2-{(1R,3S,5R)-3-[(1S,2R)-2-(2-Chloro-phenyl)-cyclopropylcarbamoyl]-2-aza-bicyclo[3.1.0]hex-2-yl}-2-oxo-ethyl)-1H-pyrazolo[3,4-c]pyridine-3-carboxylic acid amide] | –
25 | 10.4 | CC(=O)c1nn(CC(=O)N2[C@@H]3C[C@@H]3C[C@H]2C(=O)N[C@H]2C[C@]2(F)c2ccccc2)c2ncccc12 [Example 45, (1R,3S,5R)-2-[2-(3-Acetyl-pyrazolo[3,4-b]pyridin-1-yl)-acetyl]-2-aza-bicyclo[3.1.0] hexane-3-carboxylic acid ((1S,2S)-2-fluoro-2-phenyl-cyclopropyl)-amide] | –
26 | 0.118 | NC(=O)c1nn(CC(=O)N2[C@@H]3C[C@@H]3C[C@H]2C(=O)N[C@@H]2C[C@H]2c2ccccc2)c2ccncc12 [Example 14, 1-{2-Oxo-2-[(1R,3S,5R)-3-((1R,2S)-2-phenyl-cyclopropylcarbamoyl)-2-aza-bicyclo[3.1.0]hex-2-yl]-ethyl}-1H-pyrazolo[4,3-c]pyridine-3-carboxylic acid amide] | –
27 | 0.035 | NC(=O)c1nn(CC(=O)N2[C@@H]3C[C@@H]3C[C@H]2C(=O)N[C@@H]2C[C@H]2c2ccccc2Cl)c2cnccc12 [Example 67, 1-(2-{(1R,3S,5R)-3-[(1R,2S)-2-(2-Chloro-phenyl)-cyclopropylcarbamoyl]-2-aza-bicyclo[3.1.0]hex-2-yl}-2-oxo-ethyl)-1H-pyrazolo[3,4-c]pyridine-3-carboxylic acid amide] | –
28 | 1.19 | Cc1cc2c(C(N)=O)nn(CC(=O)N3[C@@H]4C[C@@H]4C[C@H]3C(=O)N[C@H]3C[C@]3(F)c3ccccc3)c2cn1 [Example 49, 1-{2-[(1R,3S,5R)-3-((1S,2S)-2-Fluoro-2-phenyl-cyclopropylcarbamoyl)-2-aza-bicyclo[3.1.0]hex-2-yl]-2-oxo-ethyl}-5-methyl-1H-pyrazolo[3,4-c]pyridine-3-carboxylic acid amide] | –
29 | 0.037 | CCc1cc2c(C(N)=O)nn(CC(=O)N3[C@@H]4C[C@@H]4C[C@H]3C(=O)N[C@@H]3C[C@H]3c3ccccc3Cl)c2cn1 [Example 68, 1-(2-{(1R,3S,5R)-3-[(1R,2S)-2-(2-Chloro-phenyl)-cyclopropylcarbamoyl]-2-aza-bicyclo[3.1.0]hex-2-yl}-2-oxo-ethyl)-5-ethyl-1H-pyrazolo[3,4-c]pyridine-3-carboxylic acid amide] | –
